Assay results reported in the supplement of paper PMC11208160.

Assay: recombinant UMI read abundance after kanamycin selection (control-corrected) (log10(CPM+1)); higher = more efficient recombination; extreme values may be limits of the assay; sequences stand for … in AGTGCAGAGAAAATCGGCCAGTTTTCTCTGCCTGCAGTCCGCATGCCGTGGGACCCCTTGGGTTCTAACCTGTTGCCTAGATTTATGCAGCGGACTGCCTTTCTCCCAAAGTGATAAACCGG…AGGTTGGTTTCACT; site = the 11-nt donor
Method in brief: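 Two replicates each of selected and unselected plating were used in this pooled Escherichia coli screen of donor and donor-binding-loop pairs for the IS621 bridge recombinase. Selection was with IPTG (0.07 mM) and kanamycin. Counts of recombinant UMIs, amplified across the donor–target junction, were converted to CPM, averaged, scaled by control-derived factors and reported as log10(CPM+1).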
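Note: IS621 bridge recombinase in Escherichia coli cells against a fixed T5 target plasmid.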

Sequence	recombinant UMI read abundance (log10)
GGACGGCCATGGACCGGTTTTCCCGGTAATCCGTATTTGCG (site GGACGGCCTCG)	0.137
GGACTAGCATGGACCGGTTTTCCCGGTAATCCGTATTTGTA (site GGACTAGCTTA)	2.56
GGAGACACATGGACCGGTTTTCCCGGTAATCCGTATTTGTC (site GGAGACACTGA)	2.59
GGAGCATCATGGACCGGTTTTCCCGGTAATCCGTATTTGAA (site GGAGCATCTTT)	1.8
GGAGGCCCATGGACCGGTTTTCCCGGTAATCCGTATTTGAT (site GGAGGCCCTAT)	0.727
GGAGGGCCATGGACCGGTTTTCCCGGTAATCCGTATTTGGC (site GGAGGGCCTGC)	0
GGAGGTACATGGACCGGTTTTCCCGGTAATCCGTATTTGCG (site GGAGGTACTCG)	1.31
GGAGTCGCATGGACCGGTTTTCCCGGTAATCCGTATTTGGT (site GGAGTAGCTAC)	0.278
GGAGTCGCATGGACCGGTTTTCCCGGTAATCCGTATTTGGT (site GGAGTCGCTAC)	0.854
GGAGTCGCATGGACCGGTTTTCCCGGTAATCCGTATTTGGT (site GGAGTGGCTAC)	0.0282
GGAGTCGCATGGACCGGTTTTCCCGGTAATCCGTATTTGGT (site GGAGTTGCTAC)	0.00431
GGAGTGACATGGACCGGTTTTCCCGGTAATCCGTATTTGGT (site GGAGTGACTAC)	0.736
GGAGTGACATGGACCGGTTTTCCCGGTAATCCGTATTTGGT (site GGAGTGCCTAC)	0.00536
GGAGTGACATGGACCGGTTTTCCCGGTAATCCGTATTTGGT (site GGAGTGGCTAC)	0.259
GGAGTGACATGGACCGGTTTTCCCGGTAATCCGTATTTGGT (site GGAGTGTCTAC)	0.92
GGAGTGGCATGGACCGGTTTTCCCGGTAATCCGTATTTGCT (site GGAGTGGCTAA)	0.463

Sequence	recombinant UMI read abundance (log10)
GGAGTGGCATGGACCGGTTTTCCCGGTAATCCGTATTTGCT (site GGAGTGGCTAC)	0.163
GGAGTGGCATGGACCGGTTTTCCCGGTAATCCGTATTTGCT (site GGAGTGGCTAG)	2.36
GGAGTGGCATGGACCGGTTTTCCCGGTAATCCGTATTTGCT (site GGAGTGGCTAT)	0.809
GGAGTGGCATGGACCGGTTTTCCCGGTAATCCGTATTTGGC (site GGAGTGGCTAC)	0.502
GGAGTGGCATGGACCGGTTTTCCCGGTAATCCGTATTTGGC (site GGAGTGGCTCC)	0.101
GGAGTGGCATGGACCGGTTTTCCCGGTAATCCGTATTTGGC (site GGAGTGGCTGC)	2
GGAGTGGCATGGACCGGTTTTCCCGGTAATCCGTATTTGGC (site GGAGTGGCTTC)	0.328
GGAGTGGCATGGACCGGTTTTCCCGGTAATCCGTATTTGGT (site AGAGTGGCTAC)	0.902
GGAGTGGCATGGACCGGTTTTCCCGGTAATCCGTATTTGGT (site CGAGTGGCTAC)	0.437
GGAGTGGCATGGACCGGTTTTCCCGGTAATCCGTATTTGGT (site GAAGTGGCTAC)	0.126
GGAGTGGCATGGACCGGTTTTCCCGGTAATCCGTATTTGGT (site GCAGTGGCTAC)	0.497
GGAGTGGCATGGACCGGTTTTCCCGGTAATCCGTATTTGGT (site GGAATGGCTAC)	0.749
GGAGTGGCATGGACCGGTTTTCCCGGTAATCCGTATTTGGT (site GGACTGGCTAC)	0.0487
GGAGTGGCATGGACCGGTTTTCCCGGTAATCCGTATTTGGT (site GGAGAGGCTAC)	0.524
GGAGTGGCATGGACCGGTTTTCCCGGTAATCCGTATTTGGT (site GGAGCGGCTAC)	0.00445
GGAGTGGCATGGACCGGTTTTCCCGGTAATCCGTATTTGGT (site GGAGGGGCTAC)	0.461
